Measured values as given in ChEMBL document CHEMBL1201862, “PubChem BioAssay data set” (2004).
The source made the active and inactive calls.

How the values were obtained:
[1] = biological target: DNA dC->dU-editing enzyme APOBEC-3A (Homo sapiens, UniProt P31941); experiment: Dose Response confirmation of small molecule APOBEC3A DNA Deaminase Inhibitors via a fluorescence-based single-stranded DNA deaminase assay. [Related pubchem assays (depositor defined):AID493011, AID493024]; assay type: functional
Chain of DNA dC->dU-editing enzyme APOBEC-3A (P31941 whole entry): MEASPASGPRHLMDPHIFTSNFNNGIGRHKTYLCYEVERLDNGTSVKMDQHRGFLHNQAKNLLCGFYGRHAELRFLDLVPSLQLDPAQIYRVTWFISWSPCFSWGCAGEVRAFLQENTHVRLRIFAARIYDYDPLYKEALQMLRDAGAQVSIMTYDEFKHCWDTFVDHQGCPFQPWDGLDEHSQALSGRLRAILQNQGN

[2] = biological target: DNA dC->dU-editing enzyme APOBEC-3G (Homo sapiens, UniProt Q9HC16); assay type: functional;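 further: Dose-response counterscreen measuring inhibition of APOBEC3G DNA deaminase activity, run while confirming APOBEC3A inhibitors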
Chain of DNA dC->dU-editing enzyme APOBEC-3G (Q9HC16 whole entry): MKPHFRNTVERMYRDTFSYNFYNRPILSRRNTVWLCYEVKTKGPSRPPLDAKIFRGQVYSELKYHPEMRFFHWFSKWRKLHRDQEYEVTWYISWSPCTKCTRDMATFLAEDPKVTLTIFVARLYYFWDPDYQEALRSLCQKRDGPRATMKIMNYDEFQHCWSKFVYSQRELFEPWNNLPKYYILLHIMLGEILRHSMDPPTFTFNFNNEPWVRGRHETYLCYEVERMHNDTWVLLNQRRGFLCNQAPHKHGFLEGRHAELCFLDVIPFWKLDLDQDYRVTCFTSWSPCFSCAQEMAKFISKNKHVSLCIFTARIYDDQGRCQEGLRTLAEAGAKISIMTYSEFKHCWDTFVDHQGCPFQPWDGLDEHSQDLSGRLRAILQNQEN

Protein skinhead-1 = biological target: T1, Protein skinhead-1 (Caenorhabditis elegans, UniProt P34707); assay type: functional
T1 sequence (P34707 whole entry): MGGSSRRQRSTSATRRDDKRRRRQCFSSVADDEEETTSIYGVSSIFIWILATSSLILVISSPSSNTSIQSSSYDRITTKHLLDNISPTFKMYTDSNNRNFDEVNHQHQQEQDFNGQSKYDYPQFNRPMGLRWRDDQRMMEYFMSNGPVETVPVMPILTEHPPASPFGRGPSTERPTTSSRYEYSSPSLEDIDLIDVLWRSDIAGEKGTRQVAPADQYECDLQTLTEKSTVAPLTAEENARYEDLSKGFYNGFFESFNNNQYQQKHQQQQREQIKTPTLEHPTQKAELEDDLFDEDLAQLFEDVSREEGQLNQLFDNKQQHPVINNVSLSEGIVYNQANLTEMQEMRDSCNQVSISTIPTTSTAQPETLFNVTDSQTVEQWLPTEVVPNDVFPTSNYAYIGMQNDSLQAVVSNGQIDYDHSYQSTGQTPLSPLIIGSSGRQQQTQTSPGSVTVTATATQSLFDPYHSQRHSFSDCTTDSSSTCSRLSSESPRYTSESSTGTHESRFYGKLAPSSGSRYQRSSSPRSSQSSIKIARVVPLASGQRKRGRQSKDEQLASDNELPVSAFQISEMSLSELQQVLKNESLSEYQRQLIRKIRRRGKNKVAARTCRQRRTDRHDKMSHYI

Cytochrome P450 2C19 = Cytochrome P450 2C19 (Homo sapiens, UniProt P33261); experiment: Cytochrome panel assay with activity outcomes. Panel member name: p450-cyp2c19 Compounds with AC50 equal or less than 10 uM are considered active; assay type: functional; conditions: read-out: AC50
[3] = biological target: T2, High affinity choline transporter 1 (Homo sapiens, UniProt Q9GZV3); experiment: CHT inhibitors, dose response, cell-based, 5-point CRC, membrane potential dye (AID 504840); assay type: functional
T2 sequence (Q9GZV3 whole entry): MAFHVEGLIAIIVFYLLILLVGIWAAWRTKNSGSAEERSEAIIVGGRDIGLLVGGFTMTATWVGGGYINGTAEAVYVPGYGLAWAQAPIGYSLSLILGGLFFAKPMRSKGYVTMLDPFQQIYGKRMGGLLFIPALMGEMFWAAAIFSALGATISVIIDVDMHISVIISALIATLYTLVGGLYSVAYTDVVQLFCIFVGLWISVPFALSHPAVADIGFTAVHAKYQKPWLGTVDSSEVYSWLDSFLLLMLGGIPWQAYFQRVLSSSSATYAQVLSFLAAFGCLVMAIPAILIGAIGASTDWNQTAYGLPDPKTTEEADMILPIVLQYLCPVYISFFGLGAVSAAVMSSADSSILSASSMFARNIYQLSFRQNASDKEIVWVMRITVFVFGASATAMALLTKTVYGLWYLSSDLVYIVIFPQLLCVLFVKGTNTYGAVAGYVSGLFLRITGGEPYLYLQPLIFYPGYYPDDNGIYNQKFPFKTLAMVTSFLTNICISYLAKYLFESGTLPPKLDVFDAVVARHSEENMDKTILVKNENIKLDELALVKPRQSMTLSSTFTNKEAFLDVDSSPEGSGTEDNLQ

Cytochrome P450 2D6 = Cytochrome P450 2D6 (Homo sapiens, UniProt P10635);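 further: CYP2D6 member of a cytochrome P450 panel assay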
Chain of Cytochrome P450 2D6 (P10635 whole entry): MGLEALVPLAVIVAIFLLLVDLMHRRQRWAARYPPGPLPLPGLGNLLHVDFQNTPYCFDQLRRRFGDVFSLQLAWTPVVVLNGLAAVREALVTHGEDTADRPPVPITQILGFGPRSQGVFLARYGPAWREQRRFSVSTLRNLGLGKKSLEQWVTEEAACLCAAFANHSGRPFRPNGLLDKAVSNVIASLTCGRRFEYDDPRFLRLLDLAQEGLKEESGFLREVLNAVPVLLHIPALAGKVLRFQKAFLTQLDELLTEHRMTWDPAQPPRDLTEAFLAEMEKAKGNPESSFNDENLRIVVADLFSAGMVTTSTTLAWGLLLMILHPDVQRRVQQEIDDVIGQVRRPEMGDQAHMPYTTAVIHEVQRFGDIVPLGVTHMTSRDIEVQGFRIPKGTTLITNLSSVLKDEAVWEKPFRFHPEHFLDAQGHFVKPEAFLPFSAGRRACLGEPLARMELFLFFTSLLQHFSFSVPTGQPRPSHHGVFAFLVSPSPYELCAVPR

Cytochrome P450 1A2 = biological target: T3, Cytochrome P450 1A2 (Homo sapiens, UniProt P05177);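 further: PubChem cytochrome P450 panel assay, CYP1A2 panel member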
T3 sequence (P05177 whole entry): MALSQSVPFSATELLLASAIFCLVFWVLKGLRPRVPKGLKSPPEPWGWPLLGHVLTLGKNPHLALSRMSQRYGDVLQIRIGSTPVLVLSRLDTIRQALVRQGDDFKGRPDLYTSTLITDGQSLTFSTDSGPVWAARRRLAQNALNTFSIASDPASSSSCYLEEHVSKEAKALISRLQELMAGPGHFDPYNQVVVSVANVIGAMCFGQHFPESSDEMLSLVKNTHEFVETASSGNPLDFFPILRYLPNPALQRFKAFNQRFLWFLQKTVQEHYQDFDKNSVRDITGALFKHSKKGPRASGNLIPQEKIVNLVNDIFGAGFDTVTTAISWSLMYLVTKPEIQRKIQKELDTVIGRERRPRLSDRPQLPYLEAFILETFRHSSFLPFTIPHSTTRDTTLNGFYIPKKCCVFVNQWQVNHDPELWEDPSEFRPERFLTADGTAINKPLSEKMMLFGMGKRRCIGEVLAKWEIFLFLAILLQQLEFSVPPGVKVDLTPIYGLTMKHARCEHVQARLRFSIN

Cytochrome P450 3A4 = Cytochrome P450 3A4 (Homo sapiens, UniProt P08684);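 further: CYP3A4 tested as one member of a cytochrome P450 panel screen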
Cytochrome P450 2C9 = Cytochrome P450 2C9 (Homo sapiens, UniProt P11712)
[4] = biological target: Peroxisome proliferator-activated receptor gamma/Nuclear receptor coactivator 1 (Homo sapiens, UniProt P37231); experiment: (§1) TR-FRET dose response biochemical High Throughput Screening assay for agonists of the steroid receptor coactivator 1 (SRC-1) recruitment by the peroxisome proliferator-activated receptor gamma (PPAR gamma): non-selective agonists. [Related pubchem assays (depositor defined):AID1300, AID1808, AID504735, AID631]; assay type: protein assay
[5] = biological target: Peroxisome proliferator-activated receptor gamma/Nuclear receptor coactivator 3 (Homo sapiens, UniProt P37231); experiment: as §1, with “3 (SRC-3)” for “1 (SRC-1)”, “assays: 1301 (Confirmation screen.), 1048 (Primary screen.)]” for “assays (depositor defined):AID1300, AID1808, AID504735, AID631]”; assay type: functional
Chain of Peroxisome proliferator-activated receptor gamma/Nuclear receptor coactivator 3 (P37231 whole entry): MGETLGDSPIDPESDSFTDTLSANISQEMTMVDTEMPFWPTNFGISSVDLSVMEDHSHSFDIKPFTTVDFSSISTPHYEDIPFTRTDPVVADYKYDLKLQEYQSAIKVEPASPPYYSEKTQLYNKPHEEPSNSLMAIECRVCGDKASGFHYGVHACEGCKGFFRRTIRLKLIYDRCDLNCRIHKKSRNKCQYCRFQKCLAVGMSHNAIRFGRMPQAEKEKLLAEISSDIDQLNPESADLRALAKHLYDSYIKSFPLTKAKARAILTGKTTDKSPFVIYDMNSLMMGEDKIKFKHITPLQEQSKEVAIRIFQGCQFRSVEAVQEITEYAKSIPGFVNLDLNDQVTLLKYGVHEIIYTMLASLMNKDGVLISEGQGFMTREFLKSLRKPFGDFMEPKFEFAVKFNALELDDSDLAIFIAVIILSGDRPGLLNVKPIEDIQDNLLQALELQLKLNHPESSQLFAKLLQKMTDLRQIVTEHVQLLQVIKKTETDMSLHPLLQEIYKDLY
Chain of Peroxisome proliferator-activated receptor gamma/Nuclear receptor coactivator 3 (Q9Y6Q9 whole entry, further chain): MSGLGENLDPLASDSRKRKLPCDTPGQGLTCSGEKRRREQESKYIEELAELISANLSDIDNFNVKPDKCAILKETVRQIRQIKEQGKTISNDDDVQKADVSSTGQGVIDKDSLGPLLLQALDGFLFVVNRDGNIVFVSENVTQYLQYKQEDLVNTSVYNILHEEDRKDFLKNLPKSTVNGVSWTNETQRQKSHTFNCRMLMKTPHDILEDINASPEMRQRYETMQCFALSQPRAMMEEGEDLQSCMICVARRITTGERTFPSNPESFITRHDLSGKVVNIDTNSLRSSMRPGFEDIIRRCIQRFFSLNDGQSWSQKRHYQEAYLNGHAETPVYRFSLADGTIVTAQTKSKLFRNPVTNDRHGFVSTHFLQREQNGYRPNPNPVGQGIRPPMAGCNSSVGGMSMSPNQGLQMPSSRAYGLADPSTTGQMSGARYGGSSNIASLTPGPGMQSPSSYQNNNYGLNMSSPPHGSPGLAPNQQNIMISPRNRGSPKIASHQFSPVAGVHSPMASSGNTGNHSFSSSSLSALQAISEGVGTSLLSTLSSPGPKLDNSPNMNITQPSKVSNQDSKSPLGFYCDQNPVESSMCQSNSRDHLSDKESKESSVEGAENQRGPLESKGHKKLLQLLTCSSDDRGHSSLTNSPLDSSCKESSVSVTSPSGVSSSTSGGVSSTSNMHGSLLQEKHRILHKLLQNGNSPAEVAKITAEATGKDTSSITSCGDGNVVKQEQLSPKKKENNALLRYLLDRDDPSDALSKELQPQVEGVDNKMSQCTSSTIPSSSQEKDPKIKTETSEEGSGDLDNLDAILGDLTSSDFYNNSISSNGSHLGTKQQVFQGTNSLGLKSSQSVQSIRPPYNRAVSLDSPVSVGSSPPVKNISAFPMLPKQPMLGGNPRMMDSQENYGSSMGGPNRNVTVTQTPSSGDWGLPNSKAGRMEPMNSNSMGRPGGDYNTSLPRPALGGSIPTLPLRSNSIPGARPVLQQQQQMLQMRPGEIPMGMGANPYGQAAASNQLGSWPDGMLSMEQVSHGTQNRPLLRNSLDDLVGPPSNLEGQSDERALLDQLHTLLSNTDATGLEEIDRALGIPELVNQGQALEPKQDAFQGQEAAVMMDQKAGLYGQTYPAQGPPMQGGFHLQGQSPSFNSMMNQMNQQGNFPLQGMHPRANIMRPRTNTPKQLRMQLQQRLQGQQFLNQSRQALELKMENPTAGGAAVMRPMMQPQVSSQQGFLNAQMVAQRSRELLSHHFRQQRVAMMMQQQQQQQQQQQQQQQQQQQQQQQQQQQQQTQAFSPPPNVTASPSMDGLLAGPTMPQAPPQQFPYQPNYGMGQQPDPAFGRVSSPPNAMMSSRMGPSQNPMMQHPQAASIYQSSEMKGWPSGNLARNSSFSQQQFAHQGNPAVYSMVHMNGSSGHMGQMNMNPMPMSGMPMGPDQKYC

[6] = biological target: Peroxisome proliferator-activated receptor gamma/Nuclear receptor coactivator 2 (Homo sapiens, UniProt P37231); experiment: TR-FRET dose response biochemical High Throughput Screening assay for agonists of the steroid receptor coactivator 2 (SRC-2) recruitment by the peroxisome proliferator-activated receptor gamma (PPAR gamma): non-selective agonists. [Related pubchem assays: 1297, 1032 ]; assay type: functional
Chain of Peroxisome proliferator-activated receptor gamma/Nuclear receptor coactivator 2 (P37231 whole entry): as the sequence (P37231 whole entry) above
Chain of Peroxisome proliferator-activated receptor gamma/Nuclear receptor coactivator 2 (Q15596 whole entry, further chain): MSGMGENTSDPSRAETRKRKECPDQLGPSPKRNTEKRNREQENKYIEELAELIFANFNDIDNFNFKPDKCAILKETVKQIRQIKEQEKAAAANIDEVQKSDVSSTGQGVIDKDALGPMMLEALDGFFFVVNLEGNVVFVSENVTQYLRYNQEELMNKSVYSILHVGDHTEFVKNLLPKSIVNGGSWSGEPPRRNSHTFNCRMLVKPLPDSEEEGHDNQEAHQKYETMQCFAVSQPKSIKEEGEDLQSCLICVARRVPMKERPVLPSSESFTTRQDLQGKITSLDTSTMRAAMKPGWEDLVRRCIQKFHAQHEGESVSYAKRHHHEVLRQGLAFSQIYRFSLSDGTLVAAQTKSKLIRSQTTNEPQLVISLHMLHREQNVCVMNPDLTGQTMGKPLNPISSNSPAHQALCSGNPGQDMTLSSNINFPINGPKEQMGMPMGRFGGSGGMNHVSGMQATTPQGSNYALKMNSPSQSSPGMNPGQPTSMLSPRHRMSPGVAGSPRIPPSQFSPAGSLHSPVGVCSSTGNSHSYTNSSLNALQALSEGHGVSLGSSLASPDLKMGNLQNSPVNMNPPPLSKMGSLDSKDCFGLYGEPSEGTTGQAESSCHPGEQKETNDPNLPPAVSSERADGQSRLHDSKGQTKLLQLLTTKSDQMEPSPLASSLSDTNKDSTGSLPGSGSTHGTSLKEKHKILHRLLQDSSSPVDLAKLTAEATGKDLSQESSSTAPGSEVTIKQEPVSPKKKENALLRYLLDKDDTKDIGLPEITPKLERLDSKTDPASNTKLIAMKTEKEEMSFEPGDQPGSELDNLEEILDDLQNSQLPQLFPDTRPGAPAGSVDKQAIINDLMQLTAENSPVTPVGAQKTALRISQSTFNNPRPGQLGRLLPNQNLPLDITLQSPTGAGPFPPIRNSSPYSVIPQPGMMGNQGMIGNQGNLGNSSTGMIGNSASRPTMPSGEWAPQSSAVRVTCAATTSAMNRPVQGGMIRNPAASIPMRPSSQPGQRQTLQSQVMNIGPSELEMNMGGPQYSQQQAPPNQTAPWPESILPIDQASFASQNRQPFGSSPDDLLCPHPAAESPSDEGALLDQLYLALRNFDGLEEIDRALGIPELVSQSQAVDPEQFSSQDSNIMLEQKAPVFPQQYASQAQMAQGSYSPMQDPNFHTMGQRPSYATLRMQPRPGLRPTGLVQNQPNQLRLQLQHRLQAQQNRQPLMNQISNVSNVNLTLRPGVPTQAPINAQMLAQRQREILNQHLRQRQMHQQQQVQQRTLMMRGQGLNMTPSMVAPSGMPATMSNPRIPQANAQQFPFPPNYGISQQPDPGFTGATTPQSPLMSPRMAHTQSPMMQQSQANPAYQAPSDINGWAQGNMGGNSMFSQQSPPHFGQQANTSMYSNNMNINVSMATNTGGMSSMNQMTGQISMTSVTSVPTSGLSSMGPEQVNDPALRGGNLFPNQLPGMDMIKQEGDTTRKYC

cells = assay type: functional
[7] = biological target: T4, Short transient receptor potential channel 4 (Mus musculus, UniProt Q9QUQ5); experiment: mouse TRPC4 channel inhibitors, dose response, cell-based, HEK293 TRPC4/mu-opioid, Fluo-4 calcium (AID 434942); assay type: functional;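 further: potency of inhibitors blocking the TRPC4 calcium response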
T4 sequence (Q9QUQ5 whole entry): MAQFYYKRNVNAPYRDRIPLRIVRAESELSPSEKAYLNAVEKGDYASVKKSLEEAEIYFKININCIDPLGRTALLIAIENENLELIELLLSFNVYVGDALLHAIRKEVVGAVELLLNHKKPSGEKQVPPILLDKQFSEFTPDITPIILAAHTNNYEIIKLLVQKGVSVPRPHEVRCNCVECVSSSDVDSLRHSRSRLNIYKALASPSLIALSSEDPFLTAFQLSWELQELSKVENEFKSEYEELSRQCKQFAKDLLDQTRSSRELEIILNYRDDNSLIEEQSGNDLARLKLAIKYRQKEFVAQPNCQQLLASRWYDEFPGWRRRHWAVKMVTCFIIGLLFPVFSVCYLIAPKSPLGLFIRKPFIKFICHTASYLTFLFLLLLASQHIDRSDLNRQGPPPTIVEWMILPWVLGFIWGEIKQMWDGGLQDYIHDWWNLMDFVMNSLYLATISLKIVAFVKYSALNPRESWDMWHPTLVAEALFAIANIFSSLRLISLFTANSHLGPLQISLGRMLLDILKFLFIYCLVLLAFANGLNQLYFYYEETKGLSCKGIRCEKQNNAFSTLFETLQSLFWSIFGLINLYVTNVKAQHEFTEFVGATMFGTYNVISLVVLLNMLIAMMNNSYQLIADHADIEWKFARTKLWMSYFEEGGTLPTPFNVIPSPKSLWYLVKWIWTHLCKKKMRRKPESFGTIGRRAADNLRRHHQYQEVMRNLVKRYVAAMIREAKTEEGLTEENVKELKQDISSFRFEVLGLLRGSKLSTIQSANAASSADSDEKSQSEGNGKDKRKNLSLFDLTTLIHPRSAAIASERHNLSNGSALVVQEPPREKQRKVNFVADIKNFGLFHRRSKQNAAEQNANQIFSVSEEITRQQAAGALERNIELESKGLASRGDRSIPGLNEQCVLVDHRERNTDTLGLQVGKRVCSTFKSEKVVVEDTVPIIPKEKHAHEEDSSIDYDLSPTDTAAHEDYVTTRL

Prothrombin = Prothrombin (Homo sapiens, UniProt P00734); experiment: Thrombin 1536 HTS Dose Response Confirmation. [Related pubchem assays: 1046 (Thrombin 1536 HTS; hits were confirmed in this assay)]; assay type: functional

In the case of O=[N+]([O-])c1ccc2nc(N3CCCC3)sc2c1, the IC50 [1] is reported as 5.31 µM (active), the IC50 [2] is reported as 4.86 µM (active) and the IC50 (Protein skinhead-1) is reported as 39.1 µM (active).
In the case of CCCCn1nc2cc(C(=O)NC3CCCc4ccccc43)ccc2c1OCC (stereo unspecified), the AC50 (Cytochrome P450 2C19) is reported as 39.8 µM (inconclusive), the IC50 [3] is reported as 12.9 µM (active) and the AC50 (Cytochrome P450 2D6) is reported as 22.4 µM (inconclusive). For the same compound, the AC50 (Cytochrome P450 1A2) was 39.8 µM (inconclusive), the AC50 (Cytochrome P450 3A4) was 35.5 µM (inconclusive) and the AC50 (Cytochrome P450 2C9) was 22.4 µM (inconclusive).
With Sc1ncnc2sc(-c3ccccc3)cc12 the EC50 [4] was 8.82 µM (active), the EC50 [5] was > 79.4 µM (not active) and the EC50 [6] was 34.7 µM (not active). The IC50 (cells) was 49.3 µM (active).
For N#Cc1ccc(-c2ccc3c(c2)OCO3)nc1SCC(=O)OCc1ccccc1, the EC50 [4] was 5.85 µM (active), the EC50 [5] was 20.4 µM (not active) and the EC50 [6] was 7.23 µM (active).
In the case of CN(C)c1cc[n+](CC(=O)Nc2ccc(OC(F)F)cc2)cc1, the IC50 [1] is reported as 2.44 µM (active) and the IC50 [2] is reported as 4.21 µM (active).
With CSCCNCc1cn(-c2ccc(F)cc2F)nc1-c1ccccc1C the EC50 [7] was 5.96 µM (active).
With N=c1n(CCO)c2ccccc2n1Cc1ccccc1 the IC50 (Prothrombin) was > 50 µM (not active) and the EC50 [7] was 5.31 µM (active).
In the case of Cn1c(=O)cc(SCC(=O)N2CCC3(CC2)OCCO3)c2ccc(Cl)cc21, the EC50 [4] is reported as > 79.4 µM (inactive), the EC50 [5] is reported as > 79.4 µM (not active) and the EC50 [6] is reported as > 79.4 µM (not active).
In the case of C[N+]1(C)CCN(c2ccccc2)CC1 [DIMETHYLPHENYLPIPERAZINIUM IODIDE], the IC50 [1] is reported as 1.93 µM (active) and the IC50 [2] is reported as 2.62 µM (active).
